In ChEMBL document CHEMBL1201862, “PubChem BioAssay data set” (2004):
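A five-concentration, 48-hour dose response in 96-well plates underlies each endpoint, interpolated linearly between surrounding concentrations. Abbreviation: GI50, concentration required for 50% inhibition of growth.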 Activity calls are given as the source filed them. Cut-off read from the data, not from the text of the source: active = GI50 up to about 1.1 µM and inactive = higher.

Legend:
Experiment in all cases: NCI tumour cell line growth inhibition, 48 h
786-0 = tested on: 786-0
A498 = tested on: A498
A549 = tested on: A549
ACHN = tested on: ACHN
BT-549 = tested on: BT-549
CAKI-1 = tested on: CAKI-1
CCRF-CEM = tested on: CCRF-CEM
COLO 205 = tested on: COLO 205
DU-145 = tested on: DU-145
EKVX = tested on: EKVX
HCC 2998 = tested on: HCC 2998
HCT-116 = tested on: HCT-116
HCT-15 = tested on: HCT-15
HL-60 = tested on: HL-60
HOP-62 = tested on: HOP-62
HOP-92 = tested on: HOP-92
HT-29 = tested on: HT-29
Hs-578T = tested on: Hs-578T
IGROV-1 = tested on: IGROV-1
K562 = tested on: K562
KM12 = tested on: KM12
LOX IMVI = tested on: LOX IMVI
M14 = tested on: M14
MCF7 = tested on: MCF7
MDA-MB-231 = tested on: MDA-MB-231
MDA-MB-435 = tested on: MDA-MB-435
MDA-N = tested on: MDA-N
MOLT-4 = tested on: MOLT-4
Malme-3M = tested on: Malme-3M
NCI-H226 = tested on: NCI-H226
NCI-H23 = tested on: NCI-H23
NCI-H460 = tested on: NCI-H460
NCI-H522 = tested on: NCI-H522
NCI/ADR-RES = tested on: NCI/ADR-RES
OVCAR-3 = tested on: OVCAR-3
OVCAR-4 = tested on: OVCAR-4
OVCAR-5 = tested on: OVCAR-5
OVCAR-8 = tested on: OVCAR-8
PC-3 = tested on: PC-3
RPMI-8226 = tested on: RPMI-8226
RXF 393 = tested on: RXF 393
SF-268 = tested on: SF-268
SF-295 = tested on: SF-295
SF-539 = tested on: SF-539
SK-MEL-28 = tested on: SK-MEL-28
SK-MEL-2 = tested on: SK-MEL-2
SK-MEL-5 = tested on: SK-MEL-5
SK-OV-3 = tested on: SK-OV-3
SN12C = tested on: SN12C
SNB-19 = tested on: SNB-19
SNB-75 = tested on: SNB-75
SR = tested on: SR
SW-620 = tested on: SW-620
T47D = tested on: T47D
TK-10 = tested on: TK-10
U-251 = tested on: U-251
UACC-62 = tested on: UACC-62
UO-31 = tested on: UO-31
UACC-257 = tested on: UACC-257

## CCOP(=O)(OCC)C(Cc1cn(S(=O)(=O)c2ccc(C)cc2)cn1)C(=O)O (stereo not given)
786-0
  GI50: > 100 µM (inactive)
A498
  GI50: > 100 µM (inactive)
A549
  GI50: > 100 µM (inactive)
ACHN
  GI50: > 100 µM (inactive)
BT-549
  GI50: > 100 µM (inactive)
CAKI-1
  GI50: > 100 µM (inactive)
CCRF-CEM
  GI50: > 100 µM (inactive)
COLO 205
  GI50: > 100 µM (inactive)
DU-145
  GI50: > 100 µM (inactive)
EKVX
  GI50: > 100 µM (inactive)
HCC 2998
  GI50: > 100 µM (inactive)
HCT-116
  GI50: > 100 µM (inactive)
HCT-15
  GI50: > 100 µM
HL-60
  GI50: > 100 µM (inactive)
HOP-62
  GI50: > 100 µM (inactive)
HOP-92
  GI50: > 100 µM (inactive)
HT-29
  GI50: > 100 µM (inactive)
Hs-578T
  GI50: > 100 µM (inactive)
IGROV-1
  GI50: > 100 µM (inactive)
K562
  GI50: > 100 µM (inactive)
KM12
  GI50: > 100 µM (inactive)
LOX IMVI
  GI50: > 100 µM (inactive)
M14
  GI50: > 100 µM (inactive)
MCF7
  GI50: > 100 µM (inactive)
MDA-MB-231
  GI50: > 100 µM (inactive)
MDA-MB-435
  GI50: > 100 µM (inactive)
MDA-N
  GI50: > 100 µM (inactive)
MOLT-4
  GI50: > 100 µM (inactive)
Malme-3M
  GI50: > 100 µM (inactive)
NCI-H226
  GI50: > 100 µM (inactive)
NCI-H23
  GI50: > 100 µM (inactive)
NCI-H460
  GI50: > 100 µM (inactive)
NCI-H522
  GI50: > 100 µM (inactive)
NCI/ADR-RES
  GI50: > 100 µM (inactive)
OVCAR-3
  GI50: > 100 µM (inactive)
OVCAR-4
  GI50: > 100 µM (inactive)
OVCAR-5
  GI50: > 100 µM (inactive)
OVCAR-8
  GI50: > 100 µM (inactive)
PC-3
  GI50: > 100 µM (inactive)
RPMI-8226
  GI50: > 100 µM (inactive)
RXF 393
  GI50: > 100 µM (inactive)
SF-268
  GI50: > 100 µM (inactive)
SF-295
  GI50: > 100 µM (inactive)
SF-539
  GI50: > 100 µM (inactive)
SK-MEL-28
  GI50: > 100 µM (inactive)
SK-MEL-2
  GI50: > 100 µM (inactive)
SK-MEL-5
  GI50: > 100 µM (inactive)
SK-OV-3
  GI50: > 100 µM (inactive)
SN12C
  GI50: > 100 µM (inactive)
SNB-19
  GI50: > 100 µM (inactive)
SNB-75
  GI50: > 100 µM (inactive)
SR
  GI50: > 100 µM (inactive)
SW-620
  GI50: > 100 µM (inactive)
T47D
  GI50: > 100 µM (inactive)
TK-10
  GI50: > 100 µM (inactive)
U-251
  GI50: > 100 µM (inactive)
UACC-62
  GI50: > 100 µM (inactive)
UO-31
  GI50: > 100 µM (inactive)

## Cc1cc(S(=O)(=O)Nc2nc3cccnc3[nH]2)c(S)cc1Cl
786-0
  GI50: > 100 µM (inactive)
A498
  GI50: > 100 µM (inactive)
A549
  GI50: 75 µM (inactive)
ACHN
  GI50: > 100 µM (inactive)
BT-549
  GI50: > 100 µM (inactive)
CAKI-1
  GI50: > 100 µM (inactive)
CCRF-CEM
  GI50: > 100 µM (inactive)
COLO 205
  GI50: > 100 µM (inactive)
DU-145
  GI50: > 100 µM (inactive)
EKVX
  GI50: > 100 µM (inactive)
HCC 2998
  GI50: > 100 µM (inactive)
HCT-116
  GI50: > 100 µM (inactive)
HCT-15
  GI50: 91 µM
HL-60
  GI50: > 100 µM (inactive)
HOP-62
  GI50: > 100 µM (inactive)
HOP-92
  GI50: > 100 µM (inactive)
HT-29
  GI50: > 100 µM (inactive)
Hs-578T
  GI50: 74 µM (inactive)
IGROV-1
  GI50: > 100 µM (inactive)
K562
  GI50: > 100 µM (inactive)
KM12
  GI50: > 100 µM (inactive)
LOX IMVI
  GI50: 83 µM (inactive)
M14
  GI50: > 100 µM (inactive)
MCF7
  GI50: > 100 µM (inactive)
MDA-MB-231
  GI50: 45.3 µM (inactive)
MDA-MB-435
  GI50: > 100 µM (inactive)
MDA-N
  GI50: > 100 µM (inactive)
MOLT-4
  GI50: > 100 µM (inactive)
Malme-3M
  GI50: > 100 µM (inactive)
NCI-H226
  GI50: 52.2 µM (inactive)
NCI-H23
  GI50: 97.5 µM (inactive)
NCI-H460
  GI50: 73.5 µM (inactive)
NCI-H522
  GI50: 70.5 µM (inactive)
NCI/ADR-RES
  GI50: > 100 µM (inactive)
OVCAR-3
  GI50: > 100 µM (inactive)
OVCAR-4
  GI50: 79.4 µM (inactive)
OVCAR-5
  GI50: > 100 µM (inactive)
OVCAR-8
  GI50: > 100 µM (inactive)
PC-3
  GI50: 92.3 µM (inactive)
RPMI-8226
  GI50: > 100 µM (inactive)
RXF 393
  GI50: > 100 µM (inactive)
SF-268
  GI50: 79.1 µM (inactive)
SF-295
  GI50: 58.1 µM (inactive)
SF-539
  GI50: > 100 µM (inactive)
SK-MEL-28
  GI50: > 100 µM (inactive)
SK-MEL-5
  GI50: 71.9 µM (inactive)
SK-OV-3
  GI50: > 100 µM (inactive)
SN12C
  GI50: > 100 µM (inactive)
SNB-19
  GI50: 77.8 µM (inactive)
SNB-75
  GI50: > 100 µM (inactive)
SR
  GI50: > 100 µM (inactive)
SW-620
  GI50: > 100 µM (inactive)
T47D
  GI50: 46.8 µM (inactive)
TK-10
  GI50: > 100 µM (inactive)
U-251
  GI50: 63.2 µM (inactive)
UACC-257
  GI50: > 100 µM (inactive)
UACC-62
  GI50: 85.1 µM (inactive)
